Test results reported in US10202372B2, “Trisubstituted pyrido[2,3-D]pyrimidines, methods for preparing same and therapeutic uses thereof” (CENTRE NATIONAL DE LA RECHERCHE SCIENTIFIQUE (C.N.R.S), priority 2012, dated 2019).
Counter-ions that a name gives are not always drawn.

Experiments:
HUH7 = experiment: Toxicity test on cells, HUH7; format: cell-based; settings: Homo sapiens, Huh-7; 48 hours of treatment, Hoechst nuclei staining
Experimental: (§1) The compounds according to the invention were also tested on the cell lines HuH7, CaCo-2, HCT116, PC3, NCl, HacaT and Fibroblasts.
(§2) Operating Procedure: The cells were cultivated according to the ECACC recommendations. The toxicity test of the compounds on these cells was conducted as follows: 4×10^3 cells/well were sown in 96 wells. 24 hours after sowing the cells, the cells were exposed to increased concentrations of the compounds (0.1 μM-0.3 μM-0.9 μM-2.7 μM-8.3 μM-25 μM). After 48 hours of treatment, the cells were washed in PBS and bound in a cold ethanol/acetic acid (90/5) mixture for 20 minutes. Next, the nuclei were coloured with […] (Sigma). The acquisition of images and the analysis was carried out by means of a reader Cellomics ArrayScan VTI/HCS (Thermo Scientific).

MDA = experiment: Toxicity test on cells, MDA; format: cell-based; settings: 48 hours of treatment, Hoechst nuclei staining
Experimental: [The procedure below names another cell line; the source lists this cell line under the same test.] as §1, §2

PI3Kα = PI3Kα (Homo sapiens, UniProt P42336); experiment: PI3Kα kinase activity, Adapta TR-FRET ADP detection; format: biochemical; settings: purified p110α/p85α heterodimer, triplicate; read-out: Kinases IC50 PI3Kα
Chain of PI3Kα (P42336 whole entry): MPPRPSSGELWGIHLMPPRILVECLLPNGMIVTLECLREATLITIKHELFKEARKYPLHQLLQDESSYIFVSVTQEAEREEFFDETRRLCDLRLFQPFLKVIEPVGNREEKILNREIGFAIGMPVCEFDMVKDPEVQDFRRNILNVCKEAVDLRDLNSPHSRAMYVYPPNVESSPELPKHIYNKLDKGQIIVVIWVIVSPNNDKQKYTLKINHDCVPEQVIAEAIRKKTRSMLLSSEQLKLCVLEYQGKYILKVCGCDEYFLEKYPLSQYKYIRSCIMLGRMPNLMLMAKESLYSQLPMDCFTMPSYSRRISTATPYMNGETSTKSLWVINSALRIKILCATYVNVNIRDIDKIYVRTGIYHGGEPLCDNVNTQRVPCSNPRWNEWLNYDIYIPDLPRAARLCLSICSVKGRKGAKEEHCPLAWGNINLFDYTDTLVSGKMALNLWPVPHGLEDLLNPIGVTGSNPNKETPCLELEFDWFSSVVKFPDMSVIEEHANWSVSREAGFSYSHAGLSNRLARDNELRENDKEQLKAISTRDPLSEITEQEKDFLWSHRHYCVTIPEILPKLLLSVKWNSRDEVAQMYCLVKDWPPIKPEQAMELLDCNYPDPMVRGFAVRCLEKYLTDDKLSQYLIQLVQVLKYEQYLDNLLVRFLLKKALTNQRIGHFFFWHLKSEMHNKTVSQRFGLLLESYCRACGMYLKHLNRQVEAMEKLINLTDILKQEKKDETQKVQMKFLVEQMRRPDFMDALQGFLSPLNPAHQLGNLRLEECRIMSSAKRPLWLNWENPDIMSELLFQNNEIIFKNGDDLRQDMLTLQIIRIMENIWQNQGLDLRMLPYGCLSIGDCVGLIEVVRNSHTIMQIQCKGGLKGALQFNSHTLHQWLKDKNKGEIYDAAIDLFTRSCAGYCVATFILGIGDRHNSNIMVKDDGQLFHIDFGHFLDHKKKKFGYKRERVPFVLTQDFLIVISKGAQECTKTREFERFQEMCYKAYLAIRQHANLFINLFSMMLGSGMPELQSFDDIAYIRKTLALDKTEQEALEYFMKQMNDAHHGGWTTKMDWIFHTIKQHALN
Chain of PI3Kα (P27986 whole entry partner): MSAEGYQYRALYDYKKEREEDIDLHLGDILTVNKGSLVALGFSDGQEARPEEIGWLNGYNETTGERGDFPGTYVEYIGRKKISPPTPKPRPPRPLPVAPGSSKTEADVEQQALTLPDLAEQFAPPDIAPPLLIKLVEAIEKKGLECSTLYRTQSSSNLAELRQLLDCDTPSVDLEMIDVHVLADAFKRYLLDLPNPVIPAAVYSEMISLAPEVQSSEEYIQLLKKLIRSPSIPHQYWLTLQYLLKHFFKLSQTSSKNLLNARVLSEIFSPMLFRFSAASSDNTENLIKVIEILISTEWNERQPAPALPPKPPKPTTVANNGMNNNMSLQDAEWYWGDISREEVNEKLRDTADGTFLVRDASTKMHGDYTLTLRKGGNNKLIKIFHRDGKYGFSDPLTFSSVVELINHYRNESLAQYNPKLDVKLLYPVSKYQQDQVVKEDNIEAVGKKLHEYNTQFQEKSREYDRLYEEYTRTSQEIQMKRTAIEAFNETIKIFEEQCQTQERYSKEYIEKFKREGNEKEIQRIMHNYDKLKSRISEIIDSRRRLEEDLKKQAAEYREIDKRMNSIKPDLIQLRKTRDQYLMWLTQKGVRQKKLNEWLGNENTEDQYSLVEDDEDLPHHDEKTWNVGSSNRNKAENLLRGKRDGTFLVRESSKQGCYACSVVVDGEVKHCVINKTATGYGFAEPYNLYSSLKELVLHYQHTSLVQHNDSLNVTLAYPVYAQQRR
Experimental: (§3) The activity of the PI3Kα kinase was evaluated by using a purified heterodimer (reference: PV4788 from Invitrogen) consisting of the α catalytic p110 subunit (PIK3CA) and the α regulation p85 subunit (PIK3R1). The assay of the kinase with the kit Adapta™ (reference: PV5099 from Invitrogen) is an enzymatic test based on the detection of ADP, produced during the reaction, by the fluorescence technique TR-FRET. It took place in a 384-well plate and was able to be divided into two phases: an enzymatic reaction phase, and a phase for detecting the ADP level.
(§4) During the enzymatic reaction phase, the following components were mixed in 10 μL of a same well: 2.5 μL of each dilution in series of inhibitors taken up in DMSO and then diluted to 1/25 in the reaction buffer (250 mM HEPES pH 7.5, 500 mM NaCl, 0.15 CHAPS, 5 mM EGTA, 15 mM MgCl2 and 1 mM DTT, ref.: PV5101 from Invitrogen), 2.5 μL of a solution containing PI3K at the optimum concentration (concentration defined according to the optimization step described in the operating procedure of the kit) diluted in the same reaction buffer, and finally, 5 μL of a solution containing 20 μM ATP and 100 μM PIP2 diluted in the reaction buffer. For each inhibitor concentration, the reaction was conducted in three copies (triplicate). The reaction was then incubated for 60 min at room temperature without any stirring in darkness.
(§5) During the phase for detecting ADP, 5 μL of a detection solution containing an anti-ADP antibody labeled with europium (6 nM), a tracer of the Alexa Fluor® 647 type coupled with ADP (30 nM), and EDTA (30 mM, for stopping the kinase reaction) were diluted in the dilution buffer (reference: PV3574 from Invitrogen). After 30 min of incubation at room temperature with stirring (40 rpm) in darkness, the 384-well plates were read in a plate reader Victor V configured for HTRF (Perkin Elmer). The excitation was produced at 340 nm and emission was measured at 665 nm and 615 nm. The inhibition curve was then plotted according to the emission ratio at 665 nm/615 nm versus the inhibitor concentration.
(§6) In order to obtain a linear response of the signal, a titration curve ATP-ADP, corresponding to the conversion % of ATP into ADP, was achieved by varying both of these species while keeping [ADP]+[ATP]=10 μM. The emission ratio at 665 nm/615 nm resulting from this (Y) was plotted versus the conversion % of ATP into ADP (X). The data of this curve were formatted according to a model with three hyperbolic parameters from the following equation: Y=C+A*(1−(X/(B+X))).
(§7) The software package GraphPad™ Prism® thus allows calculation of the parameters A, B and C. A conversion % corresponds to an emission ratio 665 nm/615 nm, this percentage is calculated by using the following equation: Conversion %=B*(C+A−Ratio)/(Ratio−C)
(§8) The three parameters A, B and C having been defined by the preceding equation, the conversion % was therefore able to be plotted versus the inhibitor concentration. The amount of inhibitor required for causing a 50% variation in the % conversion of ATP into ADP corresponds to the IC50 value of the inhibitor.

NCl = experiment: Toxicity test on cells, NCl; format: cell-based; settings: 48 hours of treatment, Hoechst nuclei staining
Experimental: as §1, §2

CaCo2 = experiment: Toxicity test on cells, CaCo2; format: cell-based; settings: Homo sapiens, Caco-2; 48 hours of treatment, Hoechst nuclei staining
Experimental: as §1, §2

PI3Kγ = PI3Kγ (Homo sapiens, UniProt P48736); experiment: PI3Kγ kinase activity, Adapta TR-FRET ADP detection; format: biochemical; settings: p110γ catalytic subunit; read-out: Kinases IC50 PI3Kγ
Experimental: as §3, §4, §5, §6, §7, §8
(§9) The activity of the kinase PI3Kγγ (PV4786 from Invitrogen) was evaluated on the p110γγ catalytic subunit (PI3KCG) and that of the kinase PI3Kδδ on the purified heterodimer (PV5273) respectively consisting of the δδ catalytic p110 subunit (PIK3CD) and the α regulation p85 subunit (PIK3R1) by following the same procedure.

HacaT = experiment: Toxicity test on cells, HacaT; format: cell-based; settings: Homo sapiens, 48 hours of treatment, Hoechst nuclei staining
Experimental: as §1, §2

PC3 = experiment: Toxicity test on cells, PC3; format: cell-based; settings: Homo sapiens, PC-3; 48 hours of treatment, Hoechst nuclei staining
Experimental: as §1, §2

Fibroblasts = experiment: Toxicity test on cells, Fibroblasts; format: cell-based; settings: Fibroblast; 48 hours of treatment, Hoechst nuclei staining
Experimental: as §1, §2

mTOR = mTOR (Homo sapiens, UniProt P42345); experiment: mTOR kinase activity, LANCE Ultra TR-FRET; format: biochemical; settings: truncated mTOR protein, triplicate; read-out: Kinases IC50 mTOR
Chain of mTOR (P42345 1360-2549): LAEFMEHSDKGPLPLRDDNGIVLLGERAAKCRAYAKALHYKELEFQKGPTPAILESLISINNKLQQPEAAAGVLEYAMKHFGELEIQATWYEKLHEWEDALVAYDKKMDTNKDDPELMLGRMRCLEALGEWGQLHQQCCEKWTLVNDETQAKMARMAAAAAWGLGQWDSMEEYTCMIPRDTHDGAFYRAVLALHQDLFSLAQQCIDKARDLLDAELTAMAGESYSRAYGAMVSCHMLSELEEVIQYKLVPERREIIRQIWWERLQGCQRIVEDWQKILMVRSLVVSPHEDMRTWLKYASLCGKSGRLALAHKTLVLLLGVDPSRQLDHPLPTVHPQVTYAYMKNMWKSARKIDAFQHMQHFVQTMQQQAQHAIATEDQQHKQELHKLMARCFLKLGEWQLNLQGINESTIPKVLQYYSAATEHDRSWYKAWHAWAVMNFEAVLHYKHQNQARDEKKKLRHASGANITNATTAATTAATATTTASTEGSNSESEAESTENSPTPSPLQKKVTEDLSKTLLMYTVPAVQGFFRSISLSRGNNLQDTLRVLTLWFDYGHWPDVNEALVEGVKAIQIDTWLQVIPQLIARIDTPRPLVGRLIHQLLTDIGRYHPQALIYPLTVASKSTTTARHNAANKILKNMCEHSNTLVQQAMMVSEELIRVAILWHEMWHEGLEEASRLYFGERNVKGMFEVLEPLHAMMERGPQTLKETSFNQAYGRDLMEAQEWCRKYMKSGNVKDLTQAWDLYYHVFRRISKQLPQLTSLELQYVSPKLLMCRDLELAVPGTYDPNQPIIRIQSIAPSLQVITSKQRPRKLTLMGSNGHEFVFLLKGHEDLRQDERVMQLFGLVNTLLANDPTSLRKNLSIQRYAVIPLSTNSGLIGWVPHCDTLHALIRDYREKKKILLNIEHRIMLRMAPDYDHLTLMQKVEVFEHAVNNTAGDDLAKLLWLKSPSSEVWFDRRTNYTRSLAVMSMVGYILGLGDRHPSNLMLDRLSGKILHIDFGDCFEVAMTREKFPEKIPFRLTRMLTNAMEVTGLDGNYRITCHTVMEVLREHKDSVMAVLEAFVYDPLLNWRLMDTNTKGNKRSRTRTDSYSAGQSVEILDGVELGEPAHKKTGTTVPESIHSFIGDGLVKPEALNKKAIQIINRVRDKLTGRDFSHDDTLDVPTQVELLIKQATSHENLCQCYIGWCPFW
Experimental: The activity of the mTOR kinase was evaluated by using a purified truncated protein of the amino acids 1-1359 (reference: PV4753 from Invitrogen). The assay of the activity of the enzyme was carried out with the kit LANCE® Ultra which is an enzymatic test based on the detection of a phosphorylated peptide produced during the reaction, by using the fluorescence technique TR-FRET. It took place in a 384-well plate and was able to be divided into two phases: an enzymatic reaction phase and a phase for detecting the phosphorylated peptide.
During the enzymatic reaction phase, the following components were mixed in 10 μL of a same well: 5 μL of each dilution in series of inhibitors taken up in DMSO and then diluted to 1/25 in the reaction buffer (50 mM HEPES pH 7.5, 0.1% Tween-20, 1 mM EGTA, 10 mM MnCl2, 3 mM MgCl2 and 2 mM of DTT), 2.5 μL of a solution containing mTOR at the optimum concentration (concentration defined according to the optimization step described in the operating procedure of the kit) diluted in the same reaction buffer, and finally 2.5 μL of a solution containing 40 μM of ATP and 200 μM non-phosphorylated peptide diluted in the reaction buffer. For each inhibitor concentration, the reaction was conducted in three copies (triplicate). The reaction was then incubated for 120 min at room temperature without any stirring in darkness.
During the phase for detecting the phosphorylated peptide, 5 μL of an EDTA solution (32 mM) diluted in the dilution buffer (ref.: CR97-100 from Perkin Elmer) were injected into each well. After 5 min of incubation with stirring, 5 μL of a phosphorylated anti-peptide antibody solution labeled with europium (8 nM) and diluted in the same dilution buffer was added into each well. After 60 min of incubation at room temperature with stirring (40 rpm) in darkness, the 384-well plates were read in a plate reader Victor V configured for HTRF (Perkin Elmer). […] The inhibition curve was then plotted according to the fluorescence intensity value at 665 nm versus the inhibitor concentration.
The amount of inhibitor required for causing a 50% variation in the intensity of the signal corresponds to the IC50 value of the inhibitor.

PI3Kδ = PI3Kδ (Homo sapiens, UniProt O00329); experiment: PI3Kδ kinase activity, Adapta TR-FRET ADP detection; format: biochemical; settings: purified p110δ/p85α heterodimer; read-out: Kinases IC50 PI3Kδ
Chain of PI3Kδ (O00329 whole entry): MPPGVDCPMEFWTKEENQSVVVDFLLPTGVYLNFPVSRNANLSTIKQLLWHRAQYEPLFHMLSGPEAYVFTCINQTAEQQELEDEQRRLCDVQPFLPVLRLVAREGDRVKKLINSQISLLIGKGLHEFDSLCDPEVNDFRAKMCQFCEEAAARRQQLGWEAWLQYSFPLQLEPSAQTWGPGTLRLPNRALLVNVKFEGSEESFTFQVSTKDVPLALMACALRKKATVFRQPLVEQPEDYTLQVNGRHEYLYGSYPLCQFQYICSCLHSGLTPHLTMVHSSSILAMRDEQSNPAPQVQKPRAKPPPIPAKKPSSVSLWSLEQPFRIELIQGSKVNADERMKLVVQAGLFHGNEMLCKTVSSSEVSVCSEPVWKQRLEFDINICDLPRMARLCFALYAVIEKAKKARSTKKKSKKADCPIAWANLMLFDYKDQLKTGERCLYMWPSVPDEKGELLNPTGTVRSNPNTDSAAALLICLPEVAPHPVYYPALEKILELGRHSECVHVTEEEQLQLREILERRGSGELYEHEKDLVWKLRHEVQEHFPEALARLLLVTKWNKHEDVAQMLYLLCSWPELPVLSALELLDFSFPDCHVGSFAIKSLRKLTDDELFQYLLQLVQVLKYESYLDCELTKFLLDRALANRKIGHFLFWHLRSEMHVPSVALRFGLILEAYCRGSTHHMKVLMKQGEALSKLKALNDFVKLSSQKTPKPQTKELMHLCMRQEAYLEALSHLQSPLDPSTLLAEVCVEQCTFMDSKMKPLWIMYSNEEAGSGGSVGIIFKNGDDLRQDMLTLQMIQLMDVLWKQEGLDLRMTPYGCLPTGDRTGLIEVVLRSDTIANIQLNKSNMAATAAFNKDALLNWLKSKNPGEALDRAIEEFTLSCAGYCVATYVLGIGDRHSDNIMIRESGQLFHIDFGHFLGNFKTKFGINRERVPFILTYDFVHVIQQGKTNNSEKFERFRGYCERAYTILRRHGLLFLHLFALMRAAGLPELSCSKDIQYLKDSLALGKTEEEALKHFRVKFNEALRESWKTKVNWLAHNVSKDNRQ
Chain of PI3Kδ (P27986 whole entry partner): as the sequence (P27986 whole entry partner) above
Experimental: as §3, §4, §5, §6, §7, §8, §9

HCT116 = experiment: Toxicity test on cells, HCT116; format: cell-based; settings: Homo sapiens, HCT-116; 48 hours of treatment, Hoechst nuclei staining
Experimental: as §1, §2

| IC50 (PI3Kα) | IC50 (PI3Kγ) | IC50 (mTOR) | IC50 (PI3Kδ) | SMILES | IC50 (HUH7) | IC50 (MDA) | IC50 (NCl) | IC50 (CaCo2) | IC50 (HacaT) | IC50 (PC3) | IC50 (Fibroblasts) | IC50 (HCT116) |
| --- | --- | --- | --- | --- | --- | --- | --- | --- | --- | --- | --- | --- |
| 0.012 µM | 0.273 µM | 0.183 µM | 0.01 µM | Oc1cccc(-c2nc(N3CCOCC3)c3ncc(Cl)cc3n2)c1 [Compound 6, 3-(7-Chloro-4-morpholinopyrido[3,2-d]pyrimidin-2-yl)phenol] | 0.8 µM | > 25 µM | > 25 µM | 8 µM | 4 µM | > 25 µM | > 25 µM | 9 µM |
| 0.109 µM | 0.428 µM | 0.249 µM | 0.011 µM | Oc1cccc(-c2nc(N3CCOCC3)c3ncc(CNC4CC4)cc3n2)c1 [Compound 27, 3-(7-((cyclopropylamino)methyl)-4-morpholinopyrido[3,2-d]pyrimidin-2-yl)phenolhydrochloride] | > 25 µM | > 25 µM | > 25 µM | 3 µM | > 25 µM | 2 µM | > 25 µM | 5 µM |
| 0.358 µM | 0.769 µM | 1.2 µM | 0.213 µM | Oc1cccc(-c2nc(N3CCOCC3)c3ncc(CNC4CCCCC4)cc3n2)c1 [Compound 28, 3-(7-((cyclohexylamino)methyl)-4-morpholinopyrido[3,2-d]pyrimidin-2-yl)phenol hydrochloride] | 15 µM | > 25 µM | 25 µM | 10 µM | 20 µM | 25 µM | > 25 µM | 20 µM |
| 0.391 µM | 0.244 µM | 2.2 µM | 0.157 µM | CN1CCN(Cc2cnc3c(N4CCOCC4)nc(-c4cccc(O)c4)nc3c2)CC1 [Compound 30, 3-(7-((4-methylpiperazin-1-yl)methyl)-4-morpholinopyrido[3,2-d]pyrimidin-2-yl)phenol hydrochloride] | 5 µM | 20 µM | 15 µM | 2 µM | 8 µM | 7 µM | > 25 µM | 10 µM |
| 0.01 µM | 0.043 µM | 0.055 µM | 0.022 µM | [N-]=[N+]=NCc1cnc2c(N3CCOCC3)nc(-c3cccc(O)c3)nc2c1 [Compound 39, 3-(7-(azidomethyl)-4-morpholinopyrido[3,2-d]pyrimidin-2-yl)phenol] | 4 µM | > 25 µM | 3 µM | 2 µM | 4 µM | 3 µM | > 25 µM | 5 µM |
| 0.546 µM | 5 µM | 5.2 µM | 3.9 µM | Oc1cccc(-c2nc(N3CCOCC3)nc3cc(Cl)cnc23)c1 [Compound 51, 3-(7-chloro-2-morpholinopyrido[3,2-d]pyrimidin-4-yl)phenol] | > 25 µM | > 25 µM | > 25 µM | 20 µM | > 25 µM | > 25 µM | > 25 µM | > 25 µM |
| 0.011 µM | – | – | – | Oc1cccc(-c2nc(N3CCOCC3)c3ncc(CN4CCN(C5CCCCC5)CC4)cc3n2)c1 [Compound 56, 3-{7-[(4-cyclohexylpiperazin-1-yl)methyl]-4-(morpholin-4-yl)pyrido[3,2-d]pyrimidin-2yl}phenol] | 6 µM | 12 µM | 11 µM | 6 µM | 8 µM | 8 µM | 10 µM | 7 µM |
| 0.003 µM | – | – | – | COCc1cn(Cc2cnc3c(N4CCOCC4)nc(-c4ccc(NC(=O)Nc5ccc(CO)cc5)cc4)nc3c2)nn1 [Compound 81, 1-[4-(hydroxymethyl)phenyl]-3-[4-(7-{[4-(methoxymethyl)-1H-1,2,3-triazol-1-yl]methyl}-4-(morpholin-4-yl)pyrido[3,2-d]pyrimidin-2-yl)phenyl]urea] | 7 µM | 0.5 µM | 0.3 µM | 2 µM | 0.3 µM | 0.1 µM | > 25 µM | 0.1 µM |

| SMILES | IC50 (PI3Kα) | IC50 (PI3Kγ) | IC50 (mTOR) | IC50 (PI3Kδ) | IC50 (HUH7) | IC50 (MDA) | IC50 (NCl) | IC50 (CaCo2) | IC50 (HacaT) | IC50 (PC3) | IC50 (Fibroblasts) | IC50 (HCT116) |
| --- | --- | --- | --- | --- | --- | --- | --- | --- | --- | --- | --- | --- |
| Oc1cccc(-c2nc(N3CCOCC3)c3ncc(CN4CCOCC4)cc3n2)c1 [Compound 29, 3-(4-morpholino-7-(morpholinomethyl)pyrido[3,2-d]pyrimidin-2-yl) phenol hydrochloride] | 0.043 µM | 1.3 µM | 0.286 µM | 0.041 µM | > 25 µM | > 25 µM | > 25 µM | 3 µM | 8 µM | 2 µM | > 25 µM | 5 µM |
